Laboratory results: ChEMBL document CHEMBL6078643, “Palladium-Mediated Bioorthogonal System for Prodrug Activation of N-Benzylbenzamide-Containing Tubulin Polymerization Inhibitors for the Treatment of Solid Tumors” (J Med Chem, 2024)
One block for each molecule: values may come before it. Active and inactive are the calls of the source. The calls are words filed in the database; no cut-off is given here.

What was measured:
[1] = Prodrug release in PBS buffer assessed as half release time of 4-(((4-((4-methoxyphenyl)(methyl)amino)quinazolin-2-yl)amino)methyl)phenol in presence of palladium resins at 75 uM by HPLC analysis; type: ADME
K562 [2] = assay: Antiproliferative activity against human K562 cells assessed as reduction in cell viability incubated for 72 hrs by CCK-8 assay; type: functional, cell-based; conditions: K562, 72 h
H22 [3] = assay: Antiproliferative activity against mouse H22 cells assessed as reduction in cell viability incubated for 72 hrs by CCK-8 assay; type: functional, cell-based; conditions: H22, 72 h
K562 [4] = assay: Select factor, ratio of test compound IC50 to 4-(((4-((4-methoxyphenyl)(methyl)amino)quinazolin-2-yl)amino)methyl)phenol IC50 for antiproliferative activity against human K562 cells assessed as reduction in cell viability incubated for 72 hrs by CCK-8 assay; type: functional
[5] = Antiproliferative activity against human THLE-2 cells assessed as reduction in cell viability incubated for 72 hrs by CCK-8 assay; type: toxicity, cell-based
HepG2 [6] = assay: Antiproliferative activity against human HepG2 cells assessed as reduction in cell viability incubated for 72 hrs by CCK-8 assay; type: functional, cell-based; conditions: HepG2, 72 h
[7] = Select factor, ratio of test compound IC50 to 4-(((4-((4-methoxyphenyl)(methyl)amino)quinazolin-2-yl)amino)methyl)phenol IC50 for antiproliferative activity against human THLE-2 cells assessed as reduction in cell viability incubated for 72 hrs by CCK-8 assay; type: toxicity, cell-based; conditions: read-out: Ratio IC50
HepG2 [8] = assay: Select factor, ratio of test compound IC50 to 4-(((4-((4-methoxyphenyl)(methyl)amino)quinazolin-2-yl)amino)methyl)phenol IC50 for antiproliferative activity against human HepG2 cells assessed as reduction in cell viability incubated for 72 hrs by CCK-8 assay; type: functional
H22 [9] = assay: Select factor, ratio of test compound IC50 to 4-(((4-((4-methoxyphenyl)(methyl)amino)quinazolin-2-yl)amino)methyl)phenol IC50 for antiproliferative activity against mouse H22 cells assessed as reduction in cell viability incubated for 72 hrs by CCK-8 assay; type: functional
K562 [10] = assay: Antiproliferative activity against human K562 cells at 100 nM incubated for 72 hrs in presence of palladium resins by CCK-8 assay; type: functional, cell-based
[11] = target: Bcr/Abl fusion protein (Homo sapiens) (UniProt P00519+P11274); assay: Inhibition of Bcr-Abl in human K562 cells at 16 nM incubated for 24 hrs by Western blotting analysis; type: cell-based
HepG2 [12] = assay: Antiproliferative activity against human HepG2 cells at 100 nM incubated for 72 hrs in presence of palladium resins by CCK-8 assay; type: functional, cell-based
Tubulin (Homo sapiens) [13] = target: T1, Tubulin (Homo sapiens) (UniProt P68371+Q9H4B7+P0DPH7+P68366+Q13509+Q71U36+P04350+Q3ZCM7+P07437+P68363+Q9BQE3+Q6PEY2+Q13885+Q9BVA1+Q9BUF5); assay: In vivo inhibition of tubulin polymerization in human HepG2 cells xenografted in Balb/c mouse assessed as decrease in alpha tubulin expression at 20 mg/kg, iv administered daily for 14 days incubated for 24 hrs by Western blot analysis; type: functional, organism-based; conditions: time 14.0 day
Tubulin (Homo sapiens) [14] = target: T1, Tubulin (Homo sapiens); assay: Inhibition of tubulin polymerization in human HepG2 cells assessed as decrease in polymerized alpha tubulin level at 19 nM incubated for 24 hrs by Western blotting analysis; type: cell-based
K562 [15] = assay: Induction of cell cycle arrest in human K562 cells assessed as accumulation of cells at G1 phase at 20 nM incubated for 72 hrs by PI staining based flow cytometric analysis ( Rvb = 77.46 %); type: functional
K562 [16] = assay: Induction of apoptosis in human K562 cells assessed as necrotic cells at 20 nM incubated for 72 hrs by Annexin V-APC staining based flow cytometric analysis (reference value: 1.65%); type: functional
Tubulin (Homo sapiens) [17] = target: T1, Tubulin (Homo sapiens); assay: Inhibition of tubulin polymerization in human K562 cells assessed as decrease in beta tubulin expression at 16 nM incubated for 24 hrs by Western blotting analysis; type: cell-based
Tubulin (Homo sapiens) [18] = target: T1, Tubulin (Homo sapiens); assay: Inhibition of tubulin polymerization in human K562 cells assessed as decrease in polymerized alpha tubulin level at 16 nM incubated for 24 hrs by Western blotting analysis; type: cell-based
Tubulin (Homo sapiens) [19] = target: T1, Tubulin (Homo sapiens); assay: Inhibition of tubulin polymerization in human HepG2 cells assessed as decrease in beta tubulin expression at 19 nM incubated for 24 hrs by Western blotting analysis; type: cell-based
K562 [20] = assay: Induction of apoptosis in human K562 cells assessed as early apoptotic cells at 20 nM incubated for 72 hrs by Annexin V-APC staining based flow cytometric analysis (reference value: 2.78%); type: functional
Tubulin (Homo sapiens) [21] = target: T1, Tubulin (Homo sapiens); assay: In vivo inhibition of tubulin polymerization in human HepG2 cells xenografted in Balb/c mouse assessed as decrease in beta tubulin expression at 20 mg/kg, iv administered daily for 14 days incubated for 24 hrs by Western blot analysis; type: functional, organism-based; conditions: time 14.0 day
Tubulin (Homo sapiens) [22] = target: T1, Tubulin (Homo sapiens); assay: Disruption of microtubule organization in human K562 cells at 20 nM incubated for 72 hrs by DAPI staining based confocal microscopic analysis; type: cell-based
K562 [23] = assay: Induction of cell cycle arrest in human K562 cells assessed as accumulation of cells at S phase at 20 nM incubated for 72 hrs by PI staining based flow cytometric analysis ( Rvb = 14.04 %); type: functional
Tubulin (Homo sapiens) [24] = target: T1, Tubulin (Homo sapiens); assay: Inhibition of tubulin polymerization in human HepG2 cells assessed as decrease in alpha tubulin expression at 19 nM incubated for 24 hrs by Western blotting analysis; type: cell-based
Tubulin (Homo sapiens) [25] = target: T1, Tubulin (Homo sapiens); assay: Inhibition of tubulin polymerization in human K562 cells assessed as decrease in alpha tubulin expression at 16 nM incubated for 24 hrs by Western blotting analysis; type: cell-based
HepG2 [26] = assay: Antitumor activity against human HepG2 cells xenografted in Balb/c mouse assessed as tumor growth inhibition at 20 mg/kg, iv administered daily for 14 days relative to control; type: functional; conditions: HepG2, 336 h, time 14 day, read-out: TGI
HepG2 [27] = assay: Antitumor activity against human HepG2 cells xenografted in Balb/c mouse assessed as cell necrosis at 20 mg/kg, iv administered daily for 14 days by H and E staining based analysis; type: functional, organism-based; conditions: time 14.0 day
K562 [28] = assay: Induction of apoptosis in human K562 cells assessed as viable cells at 20 nM incubated for 72 hrs by Annexin V-APC staining based flow cytometric analysis (reference value: 94.21%); type: functional; conditions: read-out: Activity
K562 [29] = assay: Induction of apoptosis in human K562 cells assessed as late apoptotic cells at 20 nM incubated for 72 hrs by Annexin V-APC staining based flow cytometric analysis (reference value: 1.36%); type: functional
HepG2 [30] = assay: Antitumor activity against human HepG2 cells xenografted in Balb/c mouse assessed as cell necrosis at 20 mg/kg, iv administered daily for 14 days by TUNEL staining based analysis; type: functional, organism-based; conditions: time 14.0 day
K562 [31] = assay: Induction of cell cycle arrest in human K562 cells assessed as accumulation of cells at G2 phase at 20 nM incubated for 72 hrs by PI staining based flow cytometric analysis ( Rvb = 8.5 %); type: functional
[32] = Select factor, ratio of test compound IC50 to 5-fluoro-N-(3-hydroxy-4-methoxybenzyl)-2-morpholinobenzamide IC50 for antiproliferative activity against human THLE-2 cells assessed as reduction in cell viability incubated for 72 hrs by CCK-8 assay; type: toxicity, cell-based; conditions: read-out: Ratio IC50
HepG2 [33] = assay: Select factor, ratio of test compound IC50 to 5-fluoro-N-(3-hydroxy-4-methoxybenzyl)-2-morpholinobenzamide IC50 for antiproliferative activity against human HepG2 cells assessed as reduction in cell viability incubated for 72 hrs by CCK-8 assay; type: functional
H22 [34] = assay: Select factor, ratio of test compound IC50 to 5-fluoro-N-(3-hydroxy-4-methoxybenzyl)-2-morpholinobenzamide IC50 for antiproliferative activity against mouse H22 cells assessed as reduction in cell viability incubated for 72 hrs by CCK-8 assay; type: functional
[35] = Prodrug release in PBS buffer assessed as half release time of 5-fluoro-N-(3-hydroxy-4-methoxybenzyl)-2-morpholinobenzamide in presence of palladium resins at 75 uM by HPLC analysis; type: ADME
K562 [36] = assay: Select factor, ratio of test compound IC50 to 5-fluoro-N-(3-hydroxy-4-methoxybenzyl)-2-morpholinobenzamide IC50 for antiproliferative activity against human K562 cells assessed as reduction in cell viability incubated for 72 hrs by CCK-8 assay; type: functional

Bcr/Abl fusion protein (Homo sapiens), sequence (P00519 whole entry, looked up, the tested form may be a part): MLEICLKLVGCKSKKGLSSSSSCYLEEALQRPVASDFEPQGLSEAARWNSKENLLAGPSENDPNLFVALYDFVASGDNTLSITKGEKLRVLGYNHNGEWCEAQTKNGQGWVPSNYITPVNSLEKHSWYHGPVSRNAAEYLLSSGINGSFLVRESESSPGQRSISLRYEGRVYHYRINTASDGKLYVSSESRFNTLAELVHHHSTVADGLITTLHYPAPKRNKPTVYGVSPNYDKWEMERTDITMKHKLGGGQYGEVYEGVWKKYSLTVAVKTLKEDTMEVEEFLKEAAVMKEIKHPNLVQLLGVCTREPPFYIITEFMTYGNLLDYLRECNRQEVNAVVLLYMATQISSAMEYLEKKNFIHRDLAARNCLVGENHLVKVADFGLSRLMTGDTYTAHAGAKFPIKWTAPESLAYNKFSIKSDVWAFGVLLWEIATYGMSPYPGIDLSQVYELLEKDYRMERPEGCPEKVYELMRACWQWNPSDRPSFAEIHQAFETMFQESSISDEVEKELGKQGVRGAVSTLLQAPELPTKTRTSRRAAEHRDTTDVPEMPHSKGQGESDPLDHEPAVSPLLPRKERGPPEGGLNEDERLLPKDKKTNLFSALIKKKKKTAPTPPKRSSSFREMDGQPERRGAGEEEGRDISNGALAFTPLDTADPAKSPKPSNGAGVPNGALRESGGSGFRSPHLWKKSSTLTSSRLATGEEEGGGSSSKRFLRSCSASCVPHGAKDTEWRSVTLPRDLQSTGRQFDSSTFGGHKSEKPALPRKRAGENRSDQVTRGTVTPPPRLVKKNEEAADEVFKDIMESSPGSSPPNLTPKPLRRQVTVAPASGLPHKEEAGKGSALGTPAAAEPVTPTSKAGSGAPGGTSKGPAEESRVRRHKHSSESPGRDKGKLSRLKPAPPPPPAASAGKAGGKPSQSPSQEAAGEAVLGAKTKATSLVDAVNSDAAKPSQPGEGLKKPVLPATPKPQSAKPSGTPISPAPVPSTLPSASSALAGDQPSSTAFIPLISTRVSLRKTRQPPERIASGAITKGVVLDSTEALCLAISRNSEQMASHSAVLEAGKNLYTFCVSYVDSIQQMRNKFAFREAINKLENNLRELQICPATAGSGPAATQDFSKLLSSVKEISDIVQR
Bcr/Abl fusion protein (Homo sapiens), sequence (P11274 whole entry, looked up, the tested form may be a part): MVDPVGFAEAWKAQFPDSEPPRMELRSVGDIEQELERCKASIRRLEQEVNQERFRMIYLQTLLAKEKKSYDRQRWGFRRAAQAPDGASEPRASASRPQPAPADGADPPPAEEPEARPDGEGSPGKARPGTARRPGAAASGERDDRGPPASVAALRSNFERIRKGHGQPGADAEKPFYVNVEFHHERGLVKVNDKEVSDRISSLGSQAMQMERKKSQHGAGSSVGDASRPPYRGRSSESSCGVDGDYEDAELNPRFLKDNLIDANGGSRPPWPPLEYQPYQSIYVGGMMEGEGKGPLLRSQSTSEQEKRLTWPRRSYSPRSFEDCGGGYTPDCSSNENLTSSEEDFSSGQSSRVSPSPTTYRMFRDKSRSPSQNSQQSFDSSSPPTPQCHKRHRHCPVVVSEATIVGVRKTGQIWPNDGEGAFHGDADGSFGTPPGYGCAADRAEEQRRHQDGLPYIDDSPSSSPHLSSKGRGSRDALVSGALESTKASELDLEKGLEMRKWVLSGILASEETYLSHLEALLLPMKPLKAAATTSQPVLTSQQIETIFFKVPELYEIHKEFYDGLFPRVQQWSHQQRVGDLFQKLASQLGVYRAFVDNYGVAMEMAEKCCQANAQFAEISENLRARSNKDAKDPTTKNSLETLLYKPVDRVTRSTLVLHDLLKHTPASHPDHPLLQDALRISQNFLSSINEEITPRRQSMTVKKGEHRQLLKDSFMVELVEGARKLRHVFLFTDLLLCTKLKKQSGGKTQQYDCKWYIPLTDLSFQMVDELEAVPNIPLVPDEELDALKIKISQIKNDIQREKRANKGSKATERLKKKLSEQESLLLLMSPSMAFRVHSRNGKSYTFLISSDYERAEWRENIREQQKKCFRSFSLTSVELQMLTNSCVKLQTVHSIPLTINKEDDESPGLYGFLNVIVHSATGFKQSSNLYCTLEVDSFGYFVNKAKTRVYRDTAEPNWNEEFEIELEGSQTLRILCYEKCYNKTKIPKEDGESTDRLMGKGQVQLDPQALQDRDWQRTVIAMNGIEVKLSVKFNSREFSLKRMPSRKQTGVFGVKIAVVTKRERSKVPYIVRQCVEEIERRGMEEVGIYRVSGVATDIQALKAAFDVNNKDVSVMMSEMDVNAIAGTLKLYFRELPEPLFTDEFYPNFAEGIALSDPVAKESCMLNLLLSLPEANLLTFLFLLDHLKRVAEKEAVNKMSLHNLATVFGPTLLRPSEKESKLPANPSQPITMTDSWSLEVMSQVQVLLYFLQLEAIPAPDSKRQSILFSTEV

Compound: C#CCOc1ccc(CNc2nc(N(C)c3ccc(OC)cc3)c3ccccc3n2)cc1
t1/2 [1]: 4.2 h
IC50 (K562 [2]): 470 nM
IC50 (H22 [3]): 229 nM
Ratio IC50 (K562 [4]): 24.1
IC50 at 72 h [5]: 703 nM
IC50 (HepG2 [6]): 914 nM
selectivity ratio at 72 h [7]: 15.5
Ratio IC50 (HepG2 [8]): 63.5
Ratio IC50 (H22 [9]): 11.8

Compound: C=CCOc1ccc(CNc2nc(N(C)c3ccc(OC)cc3)c3ccccc3n2)cc1
t1/2 [1]: > 24 h
IC50 (K562 [2]): 502 nM
IC50 (H22 [3]): 285 nM
Ratio IC50 (K562 [4]): 25.7
IC50 at 72 h [5]: 353 nM
IC50 (HepG2 [6]): 402 nM
selectivity ratio at 72 h [7]: 7.8
Ratio IC50 (HepG2 [8]): 27.9
Ratio IC50 (H22 [9]): 14.8

Compound: C#CC(C)(C)Oc1ccc(CNc2nc(N(C)c3ccc(OC)cc3)c3ccccc3n2)cc1
t1/2 [1]: 5.8 h
IC50 (K562 [2]): 508 nM
IC50 (H22 [3]): 473 nM
Ratio IC50 (K562 [4]): 26
IC50 at 72 h [5]: 516 nM
IC50 (HepG2 [6]): 491 nM
selectivity ratio at 72 h [7]: 11.4
Ratio IC50 (HepG2 [8]): 34.1
Ratio IC50 (H22 [9]): 24.5

Compound: C=CCOc1cc(CNC(=O)c2cc(F)ccc2N2CCOCC2)ccc1OC
selectivity ratio at 72 h [32]: 25.6
IC50 (K562 [2]): 3980 nM
IC50 (H22 [3]): 282 nM
Ratio IC50 (HepG2 [33]): 28.2
Ratio IC50 (H22 [34]): 13.9
IC50 at 72 h [5]: 5470 nM
t1/2 [35]: > 24 h
Ratio IC50 (K562 [36]): 248.8
IC50 (HepG2 [6]): 541 nM

Compound: C#CC(C)(C)Oc1cc(CNC(=O)c2cc(F)ccc2N2CCOCC2)ccc1OC
selectivity ratio at 72 h [32]: 62.2
IC50 (K562 [2]): 460 nM
IC50 (H22 [3]): 444 nM
Ratio IC50 (HepG2 [33]): 57.8
Ratio IC50 (H22 [34]): 21.9
IC50 at 72 h [5]: 1330 nM
t1/2 [35]: 14.5 h
Ratio IC50 (K562 [36]): 28.7
IC50 (HepG2 [6]): 1110 nM

Stronger by IC50 (K562 [2]), values ahead:

IC50 (K562 [2]): 19.5 nM
IC50 (HepG2 [6]): 14.4 nM
Compound: COc1ccc(N(C)c2nc(NCc3ccc(O)cc3)nc3ccccc23)cc1
IC50 (H22 [3]): 19.3 nM
IC50 at 72 h [5]: 45.4 nM

inhibition [11]: Active
IC50 (K562 [2]): 16 nM
Activity (Tubulin (Homo sapiens) [13]): Active
inhibition (Tubulin (Homo sapiens) [14]): Active
inhibition (Tubulin (Homo sapiens) [17]): Active
inhibition (Tubulin (Homo sapiens) [18]): Active
inhibition (Tubulin (Homo sapiens) [19]): Active
Activity (Tubulin (Homo sapiens) [21]): Active
Activity (Tubulin (Homo sapiens) [22]): Active
inhibition (Tubulin (Homo sapiens) [24]): Active
inhibition (Tubulin (Homo sapiens) [25]): Active
IC50 (HepG2 [6]): 19.2 nM
Compound: COc1ccc(CNC(=O)c2cc(F)ccc2N2CCOCC2)cc1O
Activity (K562 [10]): Active
Activity (HepG2 [12]): Active
IC50 (H22 [3]): 20.3 nM
Activity (K562 [15]): 45.95%
Activity (K562 [16]): 4.31%
Activity (K562 [20]): 20.68%
Activity (K562 [23]): 32.73%
IC50 at 72 h [5]: 21.4 nM
inhibition in vivo at 20 mg/kg (HepG2 [26]): 49.6%
Activity (HepG2 [27]): Active
viability at 0.02 µM (K562 [28]): 15.2%
Activity (K562 [29]): 59.77%
Activity (HepG2 [30]): Active
Activity (K562 [31]): 21.32%
